From patent publication US5773423A (priority 1994, dated 1998) come the findings set out here.

In experiment [1] the target is T1, A2 receptors from rat striatal membranes (Rattus norvegicus, UniProt P30543).
T1 construct: Rat cerebral cortical and striatal membranes were prepared; from tissue; host or cells: rat striatal membranes
Description: Radioligand binding at A2 (A2a) receptors, displacement of [3H]CGS 21680 (or [3H]NECA with 50 nM CPA) from rat striatal membranes. In general terms: In a radioligand displacement assay an active substance lowers the binding of a labelled ligand.

The target of experiment [2] is T2, A1 receptors from rat brain membranes (Rattus norvegicus, UniProt P25099).
T2 construct: Rat cerebral cortical and striatal membranes were prepared; from tissue; host or cells: rat brain (cerebral cortical) membranes
T2 sequence (P25099 1-326): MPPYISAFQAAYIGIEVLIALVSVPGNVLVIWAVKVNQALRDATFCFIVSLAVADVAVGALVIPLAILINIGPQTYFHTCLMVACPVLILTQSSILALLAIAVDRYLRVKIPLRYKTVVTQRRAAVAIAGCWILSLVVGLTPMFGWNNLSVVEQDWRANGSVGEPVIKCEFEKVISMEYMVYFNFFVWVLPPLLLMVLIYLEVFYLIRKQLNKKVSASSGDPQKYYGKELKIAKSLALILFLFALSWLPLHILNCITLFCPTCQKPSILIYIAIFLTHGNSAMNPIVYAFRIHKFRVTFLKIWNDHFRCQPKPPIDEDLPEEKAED
Description: biochemical. It counts as binding. The settings on record: for Ki: rat brain membranes; for inhibition at 100 µM: read-out: A1 percent displacement.

Setting [3] is: read-out: A2 percent displacement.
The mark [4] stands for this setting: displacement of [3H]PIA (or [3H]CHA), read-out: A1 affinity Ki.
Where [5] appears, read: rat striatal membranes, displacement of [3H]CGS 21680 (or [3H]NECA + 50 nM CPA), read-out: A2 affinity Ki.
Where [6] appears, read: at 100 μM, read-out: A2 percent displacement.
[7] abbreviates: read-out: percent displacement of radioligand at A2.

Where a name gives a salt, the structure may show the parent alone. Read-outs that look alike come from different tables or passages of the source.

T1 sequence (P30543 whole entry): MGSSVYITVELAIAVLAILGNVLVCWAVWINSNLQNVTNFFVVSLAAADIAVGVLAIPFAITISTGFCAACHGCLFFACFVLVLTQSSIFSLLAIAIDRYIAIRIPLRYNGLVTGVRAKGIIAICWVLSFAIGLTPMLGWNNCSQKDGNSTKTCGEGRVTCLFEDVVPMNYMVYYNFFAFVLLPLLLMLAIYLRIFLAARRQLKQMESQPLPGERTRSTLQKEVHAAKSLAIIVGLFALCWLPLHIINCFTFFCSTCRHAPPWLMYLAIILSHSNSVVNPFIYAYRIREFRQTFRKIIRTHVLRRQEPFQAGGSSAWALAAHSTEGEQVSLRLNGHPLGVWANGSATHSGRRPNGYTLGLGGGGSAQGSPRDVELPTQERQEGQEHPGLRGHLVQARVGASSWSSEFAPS

As to `CNC(=O)[C@H]1O[C@@H](n2cnc3c(NCc4cccc(NC(C)=O)c4)ncnc32)[C@H](O)[C@@H]1O` [Compound 45, N^6-(3-acetamidobenzyl)-NMCA], the inhibition at 100 µM in experiment [1] (setting [3]) turned out to be 12.5 ± 1.9%. Moreover, in experiment [2] (setting [4]), the Ki (commonly the equilibrium dissociation constant of an inhibitor or competing ligand from its target) was found to be 7370 nM.
On to `CNC(=O)[C@H]1O[C@@H](n2cnc3c(NCc4cccc(Br)c4)ncnc32)[C@H](O)[C@@H]1O` [Compound 41, N^6-(3-bromobenzyl)-NMCA], for which the figures for the Ki in experiment [1] (setting [5]) and in experiment [2] (setting [4]) were 64 ± 9 nM and 65 ± 2 nM, respectively.
As to `CCNC(=O)[C@H]1O[C@@H](n2cnc3c(=N)n(Cc4ccccc4[N+](=O)[O-])cnc32)[C@H](O)[C@@H]1O` [Compound 38, N'-(2-nitrobenzyl)NECA], the inhibition constant (Ki) in experiment [1] (setting [5]) was 83.5 ± 9.5 nM; in experiment [2] (setting [4]) it was 196 ± 52 nM.
On the same counts, the results for `OC[C@H]1O[C@@H](n2cnc3c(O)ncnc32)[C@H](O)[C@@H]1O` [Compound 85, inosine, reference compound] are 50000 nM and 16700 nM.
Regarding `CCCCn1c(=O)c2[nH]cnc2n(CCCC)c1=O` [Compound 109, 1,3-di-n-butyl-xanthine, reference compound], in experiment [1] (setting [5]), the Ki turned out to be 2930 nM.
`CNC(=O)[C@H]1O[C@@H](n2cnc3c(NCc4ccc(S(=O)(=O)O)cc4)ncnc32)[C@H](O)[C@@H]1O` [Compound 53, N^6-(4-sulfobenzyl)adenosine-5'-N-methyluronamide triethylammonium salt]: the inhibition at 100 µM in experiment [1] (setting [3]) and in experiment [2] (at 100 μM) was 0% in each case.
On to `CCNC(=O)[C@H]1O[C@@H](n2cnc3c(NCc4ccccc4OC)ncnc32)[C@H](O)[C@@H]1O` [Compound 65, N^6-(2-methoxybenzyl)-NECA], for which the figures for the Ki in experiment [1] (setting [5]) and in experiment [2] (setting [4]) were 21 ± 3 nM and 52 ± 5 nM, respectively.
Consider `CCCCCCn1c(=O)c2[nH]cnc2n(CCCCCC)c1=O` [Compound 110, 1,3-dihexylX, reference compound], for which, in experiment [1] (setting [3]), the inhibition at 10 µM is 14.3 ± 3%. In addition, in experiment [2] (setting [4]), the Ki is 1260 nM.
As for `NC(=O)[C@H]1O[C@@H](n2cnc3c(NCc4ccccc4)ncnc32)[C@H](O)[C@@H]1O` [Compound 39, N^6-benzyl-5'-carboxamidoadenosine], the Ki came out at 423 ± 46 nM in experiment [1] (setting [5]) and 580 ± 99 nM in experiment [2] (setting [4]).
As to `CO[C@@H]1[C@H](O)[C@@H](CO)O[C@H]1n1cnc2c(N)ncnc21` [Compound 71, 2'-O-methyladenosine, reference compound], the inhibition at 100 µM in experiment [1] (setting [6]) is 49 ± 5%; in experiment [2] (at 100 μM) it was 29.4 ± 7.5%.
Take `CNC(=O)[C@H]1O[C@@H](n2cnc3c(NCc4cccc(C(F)(F)F)c4)ncnc32)[C@H](O)[C@@H]1O` [Compound 47, N^6-(3-trifluoromethylbenzyl)adenosine-5'-N-methyluronamide]: the Ki in experiment [1] (setting [5]) turned out to be 574 ± 49 nM.
Take `CC(C)(C)OC(=O)NCCNC(=O)[C@H]1O[C@@H](n2cnc3c(N)ncnc32)[C@H](O)[C@@H]1O` [Compound 26, 5'-N-boc-aminoethylaminocarboxamidoadenosine]: the inhibition at 100 µM in experiment [1] (setting [3]) and in experiment [2] (at 100 μM) was 0% throughout.
Turning to `NCCNC(=O)[C@H]1O[C@@H](n2cnc3c(N)ncnc32)[C@H](O)[C@@H]1O` [Compound 25, 5'-N-aminoethylaminocarboxamidoadenosine], the figures for the inhibition at 100 µM in experiment [1] (setting [3]) and in experiment [2] were 12.5% and 0%, respectively.
In the case of `CCCCCCn1c(=O)c2c(ncn2[C@@H]2O[C@H](C(=O)NC)[C@@H](O)[C@H]2O)n(CCCCCC)c1=O` [Example 69, N-methyl 1,3-di-n-hexylxanthine-7-β-D-ribofuronamide], the inhibition at 100 µM in experiment [1] (Table 4, at 10^-4 M, read-out: percent displacement of radioligand at A2) was 0%.
`Nc1nc(NCc2cccc(I)c2)c2ncn([C@@H]3O[C@H](CO)[C@@H](O)[C@H]3O)c2n1` [Example 43, 2-amino-N^6-(3-iodobenzyl)-9-[β-D-ribofuranosyl]-adenine]: the “factor less potent than N6-(3-iodobenzyl)-adenosine at A2a receptors” value in experiment [1] was 6.7 factor. In addition, the Ki in experiment [1] (Table 2, [3H]CGS 21680, rat striatal membranes, read-out: Ki (A2)) amounted to 117 ± 15 nM; in experiment [2] (Table 2, [3H]PIA, read-out: Ki (A1)), 63.8 ± 15.1 nM. In experiment [2], the “factor less potent than N6-(3-iodobenzyl)-adenosine at A1 receptors” value is 3.2 factor.
Turning to `Nc1ncnc2c1ncn2[C@]1(CO)O[C@H](CO)[C@@H](O)[C@H]1O` [Compound 80, β-D-psicofuranosyladenine, reference compound], the inhibition at 100 µM in experiment [1] (setting [6]) turned out to be 51.5 ± 7.4%; in experiment [2], 36.1 ± 4.9%.
`CNC(=O)[C@H]1O[C@@H](n2cnc3c(NCc4ccccc4)ncnc32)[C@H](O)[C@@H]1O` [Compound 40, N^6-benzyladenosine-5'-N-methyluronamide]: the Ki came out at 597 ± 42 nM in experiment [1] (setting [5]) and 898 ± 124 nM in experiment [2] (setting [4]).
Turning to `CCNC(=O)[C@H]1O[C@@H](n2cnc3c(N[C@@H](C)c4ccccc4)ncnc32)[C@H](O)[C@@H]1O` [Compound 56, N^6 -(S-phenylethyl)-NECA], in experiment [1] (setting [5]), the Ki turned out to be 1650 nM.
Still for that read-out and setting: next, `O=C(NC1CC1)[C@H]1O[C@@H](n2cnc3c(NCc4ccccc4)ncnc32)[C@H](O)[C@@H]1O` [Compound 24, N^6-benzyladenosine-5'-N-cyclopropyluronamide]: 55 ± 6 nM; `CNC(=O)[C@H]1O[C@@H](n2cnc3c(NCc4cccc([N+](=O)[O-])c4)ncnc32)[C@H](O)[C@@H]1O` [Compound 43, N^6-(3-nitrobenzyl)-NMCA]: 441 ± 45 nM.
In the case of `CCCn1c(=O)[nH]c2nc(C3CCCC3)[nH]c2c1=O` [Compound 129, 8-cyclopentyl-1-propylX, reference compound], the Ki in experiment [1] (setting [5]) was found to be 48700 nM; in experiment [2] (setting [4]), 226 ± 37 nM.
For `Cn1c(=O)c2c(ncn2[C@@H]2O[C@H](CO)[C@@H](O)[C@H]2O)n(C)c1=O` [Compound 117, theophylline-7-riboside, reference compound], the inhibition at 100 µM in experiment [1] (setting [7]) stood at 2%. The Ki in experiment [2] (Table 4, [3H]PIA, read-out: Ki (A1)) came out at 27000 nM.
Consider `CCNC(=O)[C@H]1O[C@@H](n2cnc3c(N)[n+]([O-])cnc32)[C@H](O)[C@@H]1O` [Compound 35, adenosine-5'-N-ethyluronamide-N^1-oxide], for which the Ki in experiment [1] (setting [5]) was found to be 101 ± 19 nM.
For the compound `CCCCn1c(=O)c2c(ncn2[C@@H]2O[C@H](C(N)=O)[C@@H](O)[C@H]2O)n(CCCC)c1=O`, the “A2a affinity decrease vs 1,3-di-n-butylxanthine-7-β-D-ribofuranoside” value in experiment [1] was determined as 2.8 fold.
For `NC[C@H]1O[C@@H](n2cnc3c(N)ncnc32)[C@H](O)[C@@H]1O` [Compound 74, 5'-deoxy-5'-aminoadenosine, reference compound], the Ki in experiment [2] (setting [4]) came out at 42700 nM.
For the compound `CNC(=O)[C@H]1O[C@@H](n2cnc3c(NCc4ccc(N)c(I)c4)ncnc32)[C@H](O)[C@@H]1O` [Compound 51, N^6-(4-amino-3-iodobenzyl)adenosine-5'-N-methyluronamide], the “displacement of radioligand from A2a (in words)” value in experiment [1] is recorded as “not A1 or A2a receptors”. The Ki in experiment [1] (setting [5]) amounted to 316 ± 43 nM.
For the compound `O=c1c2[nH]cnc2n(Cc2ccccc2)c(=O)n1Cc1ccccc1` [Compound 111, 1,3-dibenzylX, reference compound], the inhibition at 10 µM in experiment [1] (at 10 μM, read-out: A2 percent displacement) stood at 3.61 ± 0.94%.
On to `Nc1nccc2c1ncn2[C@@H]1O[C@H](CO)[C@@H](O)[C@H]1O` [Compound 32, 3-deazaadenosine, reference compound], for which the Ki in experiment [1] (setting [5]) came to 59800 nM.
In the case of `CCCCCC[C@H]([C@H](C)O)n1cnc2c(N)ncnc21` (relative stereo) [Compound 96, erythro-9-(2-hydroxy-3-nonyl)adenine, reference compound], the inhibition at 100 µM in experiment [1] (setting [6]) came to 59.6 ± 2.8%.
As for `CNC(=O)[C@H]1O[C@@H](n2cnc3c(NCc4ccc(Cl)cc4)ncnc32)[C@H](O)[C@@H]1O` [Compound 48, N^6-(4-chlorobenzyl)-NMCA], the Ki in experiment [1] (setting [5]) was 2730 nM.
As for `CCCCn1c(=O)c2c(ncn2[C@@H]2O[C@H](C(=O)NC)[C@@H](O)[C@H]2O)n(CCCC)c1=O` [Compound 124, N-methyl 1,3-di-n-butylxanthine-7-β-D-ribofuronamide], in experiment [2], the inhibition at 100 µM worked out at 30%.
In the case of `CCCCCCn1c(=O)c2c(ncn2[C@@H]2O[C@H](CO)[C@@H](O)[C@H]2O)n(CCCCCC)c1=O` [Example 64, 1,3-di-n-hexylxanthine-7-β-D-ribofuranoside], in experiment [1] (setting [7]), the inhibition at 10 µM was 7.8% and the inhibition at 100 µM was determined as 69 ± 2%.
As to `Cn1c(=O)c2c(ncn2CCO)n(C)c1=O` [Compound 116, 7-β-hydroxyethylT, reference compound], in experiment [1] (setting [5]), the inhibition constant (Ki) worked out at 17400 nM.
With `Cn1c(=O)[nH]c(=O)c2[nH]cnc21` [Compound 100, 3-methylX, reference compound], in experiment [1] (setting [3]), the inhibition at 100 µM was found to be 38 ± 0.9%.
For the compound `CNC(=O)[C@H]1O[C@@H](n2cnc3c(NCc4ccc(Br)cc4)ncnc32)[C@H](O)[C@@H]1O` [Compound 49, N^6-(4-bromobenzyl)-NMCA], the Ki in experiment [1] (setting [5]) was 2460 nM.
As to `CCCCCn1c(=O)c2c(ncn2[C@@H]2O[C@H](C(=O)NC)[C@@H](O)[C@H]2O)n(CCCCC)c1=O` [Example 68, N-methyl 1,3-di-n-pentylxanthine-7-β-D-ribofuronamide], the inhibition at 100 µM in experiment [1] (setting [7]) is 2%.
On to `CNC(=O)[C@H]1O[C@@H](n2cnc3c(NCc4cccc(N)c4)ncnc32)[C@H](O)[C@@H]1O` [Compound 44, N^6-(3-aminobenzyl)adenosine-5'-N-methyluronamide], for which the Ki in experiment [1] (setting [5]) came out at 794 ± 118 nM.
For `Cn1c(=O)c2ncn(C)c2n(C)c1=O` [Compound 113, 1,3,9-trimethylX, reference compound], the inhibition at 100 µM in experiment [1] (setting [3]) worked out at 14.4 ± 5.7%.
